Patent US12076307B2, “Compositions for prevention or treatment of acute radiation syndrome and other radiation exposure” (priority 2017, dated 2024)
Where “and” joins values, the source holds several entries; their conditions need not be identical. Identical values can stand only once. Marks after values point to notes of the source that are not given here.

Columns and labels:
[1] = system: Guinea pig; assay: Antigenicity test; format: in vivo; conditions: Oral; 2 weeks; 500, 2000 mg/kg; 2000 mg/kg + FCA
Text: Various toxicology studies have been performed. All studies were GLP-compliant unless otherwise noted.

[2] = system: mice, 5-FU + X-radiation 20 Gy on heads and necks; assay: CRIOM (chemoradiation-induced oral mucositis) murine model; format: in vivo, mouse
Text: Radiation-Induced Coagulopathy is worsened in more severe syndromes including mucositis in the oral cavity and GI. As described above, exposure to radiation stimulates DAMP release and DAMP recognized by PRR results in an inflammatory response that causes apoptosis, mucosal atrophy, and ulceration. Specifically, TLR-4 has been identified as a major PRR, which plays a critical role in the pathogenesis of mucosal injury (Vasconcelos et al., 2016). To investigate the mitigating effect of EC-18 against CRIOM, different doses of EC-18 were administered to mice daily. CRIOM mouse model was established using concurrent treatments with 5-FU (100 mg/kg, i.p.) and X-radiation (20 Gy) on heads and necks of mice. PBS or EC-18 (100 and 250 mg/kg, p.o.) was administered daily (n=5 for each group). The body weights of mice were observed, and the mice were sacrificed on day 9.

[3] = system: Balb/c mice, γ-Radiation TBI; assay: Survival after total body irradiation 6.5-10 Gy (Example 4); format: in vivo, mouse; conditions: 250 mg/kg/day PO
Text: In order to evaluate effects of PLAG on survival rates of animal models exposed to radiation, the following test groups were constructed as shown in Table 3 and results are shown in FIG. 7B, and FIG. 8-12. As discussed in Examples above, the first group of untreated group (negative control) of ARS-induced mice after radiation was compared to the second group of treated group of ARS-induced mice with PLAG after radiation.

[4] = Whole-body autoradiography of rats after single oral [14C]EC-18; format: in vivo, rat; conditions: 200 mg/kg oral
Description: Male albino rats in fasted conditions were administered a single dose of [^14C]EC-18 (oral dose of 200 mg/kg, vehicle: olive oil). The distribution and levels of radioactivity in the body were observed by whole-body autoradiography performed at 0.25, 1, 8, and 24 hrs after [^14C]EC-18 administration.

[5] = system: Balb/c mice, 6.11 Gy TBI; assay: Dose optimization / pharmacodynamics study in LD70/30 ARS model (40 mice per group)
[6] = 6.11 Gy, EC-18 50 mg/kg daily from day 1, 30 days
[7] = 6.11 Gy, EC-18 100 mg/kg daily from day 1, 30 days
[8] = 6.11 Gy, EC-18 250 mg/kg daily from day 1, 30 days
[9] = 6.11 Gy, EC-18 500 mg/kg daily from day 1, 30 days

Compound: CCCCC/C=C\C/C=C\CCCCCCCC(=O)OC(COC(C)=O)COC(=O)CCCCCCCCCCCCCCC (stereo not drawn) [EC-18, 1-palmitoyl-2-linoleoyl-3-acetylglycerol]
- anaphylaxis reaction / antigenicity [1]: No anaphylaxis reaction
- thickness of the oral epithelium ([2]; ChemoRT + EC-18): protective effect
- DAMPs (HMGB1, HSP90) in serum ([2]; ChemoRT + EC-18 250 mg/kg): subsided levels of DAMPs
- MIP-2 and IL-6 in serum ([2]; ChemoRT + EC-18 250 mg/kg): substantially less systemic inflammation
- expression level of CXCL2 and IL-6 mRNA in tongues ([2]; ChemoRT + EC-18 250 mg/kg): downregulated
- necroptotic signaling axis (RIPK1, RIPK3, MLKL phosphorylation) in tongues ([2]; ChemoRT + EC-18 250 mg/kg): significantly modulated
- neutrophils recruited at oral epithelium (IHC) ([2]; ChemoRT + EC-18 250 mg/kg): did not
- OM score and rates of ulceration ([2]; ChemoRT + EC-18 100 and 250 mg/kg): statistically improvement of OM score and lower rates of ulceration dose-dependently
- body weight ([2]; ChemoRT + EC-18 100 and 250 mg/kg p.o. daily): did not exhibit a significant weight loss
- survival rate vs untreated mice ([3]; 6.5 Gy TBI, BALB/c 9 weeks old): improved
- survival rate vs untreated mice ([3]; 6.5 Gy TBI, BALB/c 11 weeks old): improved
- survival rate vs untreated mice ([3]; 7 Gy TBI, 9 weeks old): improved until about day 15
- survival rate vs untreated mice ([3]; 8 Gy TBI, 9 weeks old): improved until about day 14
- survival rate vs untreated mice ([3]; 10 Gy TBI, 9 weeks old): improved until about day 9
- time to elimination [4]: ≤ 24 h
- improvement in survival vs control group ([5]; 25 mg/kg (so in the source)): 2 fold
- improvement in survival vs control group ([5]; 250 mg/kg daily, 24-hr delayed): 4 fold
- γ-radiation-induced reduction of RBC and hemoglobin ([5]; 250 mg/kg, 30 days of observation): significantly prevented
- mean PLT count vs control cohort ([5]; 250 mg/kg, from 15 days to the last day of observation): higher
- improvement in survival vs control group ([5]; 500 mg/kg daily, 24-hr delayed): ~4 fold
- Survival time of decedents, Median ([5]; 6.11 Gy, EC-18 50 mg/kg): 25.5 days
- No. of mice that survived/total [5, 6]: 24/40
- Survivability / Survival [5, 6]: 60%
- Survival time of decedents, Mean ± SEM ([5]; 6.11 Gy, EC-18 50 mg/kg, 50 mg/kg): 24.3 days and 24.3 ± 1.2 days
- Survival time of decedents, Mean ± SEM ([5]; 6.11 Gy, EC-18 100 mg/kg): 22.8 ± 1.7 days
- Survival time of decedents, Median ([5]; 6.11 Gy, EC-18 100 mg/kg): 26.0 days
- No. of mice that survived/total [5, 7]: 27/40
- Survival [5, 7]: 67.5%
- Survival time of decedents, Median ([5]; 6.11 Gy, EC-18 250 mg/kg): 27.5 days
- No. of mice that survived/total [5, 8]: 34/40
- Survivability / Survival [5, 8]: 85%
- Survival time of decedents, Mean ± SEM ([5]; 6.11 Gy, EC-18 250 mg/kg, 250 mg/kg): 27.8 days and 27.8 ± 0.4 days
- Survival time of decedents, Median ([5]; 6.11 Gy, EC-18 500 mg/kg): 19.5 days
- No. of mice that survived/total [5, 9]: 34/40
- Survivability / Survival [5, 9]: 85%
- Survival time of decedents, Mean ± SEM ([5]; 6.11 Gy, EC-18 500 mg/kg, 500 mg/kg): 20.3 days and 20.3 ± 1.5 days
- radiation-induced depletion of ANC (and WBC) ([5]; 50 and 250 mg/kg, dose-dependent): significantly attenuated
- Mean of the First Day Of Anemia (HGB <12 g/dL) (±SE) ([5]; EC-18 50 mg/kg): 10.4 ± 0.7 (5-15)
- Mean of the First Day of Neutropenia (ANC <500 cells/μL) (±SE) ([5]; EC-18 50 mg/kg): 3.0 ± 0.0 (3-3)
- Mean of the First Day of Thrombocytopenia (PLT <100 × 10^3 cells/μL) (±SE) ([5]; EC-18 50 mg/kg): 10.0 ± 0.0 (10-10)
- Mean of the First Day of SN (ANC <100 cells/μL) (±SE) ([5]; EC-18 50 mg/kg, 50 mg/kg): 5.7 ± 0.6 (3-10) days
- Mean Duration of Anemia in Days (±SE) ([5]; EC-18 50 mg/kg, n=17): 15.0 ± 0.8^b (7-19) Days
